Measured values taken from US20260022143A1, “Cyclic Peptide Inhibitors of IL-23” (JANSSEN PHARMACEUTICA NV, priority 2022, published 2026).
Starred links: 1 amine or outer side, 2 acyl side, 3 side chain; linkers in the order of their positions; H or OH if unused. Positions of bridges follow the written chain, without caps; N, C: chain ends. Non-standard residues stand in square brackets, D forms with d. Residues, ends and D or L forms follow the SMILES beside them. Groups on a side chain read outwards from the residue. *: point of attachment. X78 = N=C(N)NCCc1cn(-c2ccc(C[C@H](N[*:1])C(=O)[*:2])cc2)nn1; Me3N+(CH2)2O(CH2)2O(CH2)2CO = C[N+](C)(C)CCOCCOCCC(=O)*; CH2CH2OCH2CH2OCH2CH2NMe3+ = C[N+](C)(C)CCOCCOCC*; Trp(7-Me) = Cc1cccc2c(C[C@H](N)C(=O)O)c[nH]c12; Abu(4-yl) = O=C([C@H](CC[*:3])N[*:1])[*:2]; Pentanoyl(5-guanidino) = NC(N)=NCCCCC(=O)*; γGlu = O=C(O)[C@H](CCC(=O)[*:2])N[*:1]; 2Nal = N[C@@H](Cc1ccc2ccccc2c1)C(=O)O; AEF = NCCOc1ccc(C[C@H](N)C(=O)O)cc1; 3Pal = N[C@@H](Cc1cccnc1)C(=O)O; Lys(Me) = CNCCCC[C@H](N)C(=O)O; NMeK = CN[C@@H](CCCCN)C(=O)O; Pen = CC(C)(S)[C@H](N)C(=O)O; Lauroyl = CCCCCCCCCCCC(=O)*; αMeC = C[C@](N)(CS)C(=O)O; Ac6c = NC1(C(=O)O)CCCCC1; Nle = CCCC[C@H](N)C(=O)O; Thp = NC1(C(=O)O)CCOCC1; X3 = C[N+](C)(C)CCCCC*; AEEA = NCCOCCOCC(=O)O; Sar = CNCC(=O)O

Molecular target: T1, IL-23R (Homo sapiens, UniProt Q5VWK5)
T1 construct: host or cells: HEK293
T1 sequence (Q5VWK5 24-629): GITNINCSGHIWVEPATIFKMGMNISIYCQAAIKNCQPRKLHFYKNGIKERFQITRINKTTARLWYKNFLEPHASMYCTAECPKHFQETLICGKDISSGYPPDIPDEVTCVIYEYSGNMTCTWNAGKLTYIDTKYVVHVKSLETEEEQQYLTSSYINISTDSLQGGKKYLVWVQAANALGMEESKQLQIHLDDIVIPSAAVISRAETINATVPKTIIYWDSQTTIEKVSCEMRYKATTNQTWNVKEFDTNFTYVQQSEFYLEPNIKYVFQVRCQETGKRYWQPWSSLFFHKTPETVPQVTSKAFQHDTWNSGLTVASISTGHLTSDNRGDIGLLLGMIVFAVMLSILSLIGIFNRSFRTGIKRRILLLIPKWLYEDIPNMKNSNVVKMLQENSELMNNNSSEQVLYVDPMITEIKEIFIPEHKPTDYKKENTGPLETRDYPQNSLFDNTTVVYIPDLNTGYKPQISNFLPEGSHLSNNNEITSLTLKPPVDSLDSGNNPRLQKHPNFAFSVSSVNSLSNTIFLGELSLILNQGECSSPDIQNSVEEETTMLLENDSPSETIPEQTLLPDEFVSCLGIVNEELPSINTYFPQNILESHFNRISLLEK
Assay: IL23R Reporter Assay
Type: cell-based
Conditions: HEK293 cells containing IL-23R, IL-12RP1 and STAT-inducible firefly luciferase reporter; 10 ng/mL IL-23 (EC90); 5 h at 37° C.; read-out: IL23R Reporter Assay

`CCCCCCCCCCCC(=O)N[C@@H](CCC(=O)NCCOCCOCC(=O)NCCOCCOCC(=O)NCCOCCOCC(=O)NCCCC[C@H](NC(=O)C1(NC(=O)[C@H](Cc2ccc3ccccc3c2)NC(=O)[C@H](Cc2ccc(OCCCCC[N+](C)(C)C)cc2)NC(=O)[C@H]2NC(=O)[C@H](CCCCNC(C)=O)NC(=O)[C@H](Cc3c[nH]c4c(C)cccc34)NC(=O)[C@H]([C@@H](C)O)NC(=O)[C@H](CC(=O)N(C)C)NC(=O)[C@@H](NC(=O)CCOCCOCC[N+](C)(C)C)C(C)(C)SSC2(C)C)CCOCC1)C(=O)N[C@@H](CC(N)=O)C(=O)N[C@@H](Cc1cccnc1)C(=O)N(C)[C@@H](CCCCNC(=O)COCCOCCNC(=O)COCCOCCNC(=O)COCCOCCNC(=O)CC[C@H](NC(=O)CCCCCCCCCCC)C(=O)O)C(N)=O)C(=O)O` [compound 373, cPEG3aCO-Pen(3)-N(N(Me)2)-T-7MeW-K(Ac)-Pen(3)-TMAPF-2Nal-THP-K(PEG2PEG2PEG2gEC12))-N-3Pya-NMeK(PEG2PEG2PEG2gEC12)-CONH2] ({Me3N+(CH2)2O(CH2)2O(CH2)2CO}-[Pen]D(NMe2)T[Trp(7-Me)]K(Ac)[Pen]Y(X3)[2Nal][Thp]K([AEEA-AEEA-AEEA-γGlu-Lauroyl])N[3Pal][NMeK]([AEEA-AEEA-AEEA-γGlu-Lauroyl])-NH2; disulfide 1-6) showed an IC50 of 87 nM.
In the case of `CCCCCCCCCCCC(=O)N[C@@H](CCC(=O)NCCOCCOCC(=O)NCCOCCOCC(=O)NCCCC[C@@H]1NC(=O)[C@@H](NC(=O)CCOCCOCC[N+](C)(C)C)C(C)(C)SSC(C)(C)[C@@H](C(=O)N[C@@H](Cc2ccc(OCCCCC[N+](C)(C)C)cc2)C(=O)N[C@@H](Cc2ccc3ccccc3c2)C(=O)NC2(C(=O)N[C@@H](CCCCN(C)C(C)=O)C(=O)N[C@@H](CC(N)=O)C(=O)N[C@@H](Cc3cccnc3)C(=O)N(C)CC(=O)N(C)C)CCOCC2)NC(=O)[C@H](CCCCN(C)C(C)=O)NC(=O)[C@H](Cc2c[nH]c3c(C)cccc23)NC(=O)[C@H]([C@@H](C)O)NC1=O)C(=O)O` [compound 387, cPEG3aCO-Pen(3)-K(PEG2PEG2gEC12)-T-7MeW-K(NMeAc)-Pen(3)-TMAPF-2Nal-THP-K(NMeAc)-N-3Pya-Sar-CON(Me)2] ({Me3N+(CH2)2O(CH2)2O(CH2)2CO}-[Pen]K([AEEA-AEEA-γGlu-Lauroyl])T[Trp(7-Me)][Lys(Me)](Ac)[Pen]Y(X3)[2Nal][Thp][Lys(Me)](Ac)N[3Pal][Sar]-NMe2; disulfide 1-6), the IC50 is reported as 12 nM.
`CC(=O)N(C)CCCC[C@@H]1NC(=O)[C@H](Cc2c[nH]c3c(C)cccc23)NC(=O)[C@H]([C@@H](C)O)NC(=O)[C@H](CC(=O)N(C)C)NC(=O)[C@@H](NC(=O)CCCCNC(=N)N)C(C)(C)SSC(C)(C)[C@@H](C(=O)N[C@@H](Cc2ccc(OCCCCC[N+](C)(C)C)cc2)C(=O)N[C@@H](Cc2ccc3ccccc3c2)C(=O)NC2(C(=O)N[C@@H](CCCCN(C)C(C)=O)C(=O)N[C@@H](CC(N)=O)C(=O)N[C@@H](Cc3cccnc3)C(=O)N(C)CC(=O)N(C)C)CCOCC2)NC1=O` [compound 403, 4cpgCO-Pen(3)-N(N(Me)2)-T-7MeW-K(NMeAc)-Pen(3)-TMAPF-2Nal-THP-K(NMeAc)-N-3Pya-Sar-CON(Me)2] ({Pentanoyl(5-guanidino)}-[Pen]D(NMe2)T[Trp(7-Me)][Lys(Me)](Ac)[Pen]Y(X3)[2Nal][Thp][Lys(Me)](Ac)N[3Pal][Sar]-NMe2; disulfide 1-6) showed an IC50 of 4.5 nM.
`CC(=O)NCCCC[C@@H]1NC(=O)[C@H](Cc2c[nH]c3c(-c4cccc(NC(C)=O)c4)cccc23)NC(=O)[C@H]([C@@H](C)O)NC(=O)[C@H](CC(N)=O)NC(=O)[C@@H](NC(=O)CCOCCOCC[N+](C)(C)C)C(C)(C)SSC(C)(C)[C@@H](C(=O)N[C@@H](Cc2ccc(OCCNC(=N)N)cc2)C(=O)N[C@@H](Cc2ccc3ccccc3c2)C(=O)NC2(C(=O)N[C@@H](CCCCN(C)C(C)=O)C(=O)N[C@@H](CC(N)=O)C(=O)N[C@@H](Cc3cncc(C)c3)C(=O)N(C)CC(N)=O)CCOCC2)NC1=O` [compound 481, cPEG3aCO-Pen(3)-N-T-7(3NAcPh)W-K(Ac)-Pen(3)-AEF(G)-2Nal-THP-K(NMeAc)-N-5MePyridinAla-Sar-CONH2] gave an IC50 of 3.5 nM.
In the case of `CCCC[C@H](NC(=O)C1(NC(=O)[C@H](Cc2ccc3ccccc3c2)NC(=O)[C@H](Cc2ccc(OCCOCCOCC[N+](C)(C)C)cc2)NC(=O)[C@H]2NC(=O)[C@H](CCCCN(C)C(C)=O)NC(=O)[C@H](Cc3c[nH]c4c(C)cccc34)NC(=O)[C@H]([C@@H](C)O)NC(=O)[C@H](CC(=O)N(C)C)NC(=O)[C@@H](NC(=O)CCOCCOCC[N+](C)(C)C)C(C)(C)SSC2(C)C)CCOCC1)C(=O)N[C@@H](CC(N)=O)C(=O)N[C@@H](Cc1cccnc1)C(=O)N(C)CC(=O)N(C)C` [compound 520, cPEG3aCO-Pen(3)-N(N(Me)2)-T-7MeW-K(NMeAc)-Pen(3)-APEG3F-2Nal-THP-Nle-N-3Pya-Sar-CON(Me)2] ({Me3N+(CH2)2O(CH2)2O(CH2)2CO}-[Pen]D(NMe2)T[Trp(7-Me)][Lys(Me)](Ac)[Pen]Y(CH2CH2OCH2CH2OCH2CH2NMe3+)[2Nal][Thp][Nle]N[3Pal][Sar]-NMe2; disulfide 1-6), the IC50 is reported as 1.4 nM.
For `CC(=O)NCCCC[C@@H]1NC(=O)[C@H](Cc2c[nH]c3c(C)cccc23)NC(=O)[C@H]([C@@H](C)O)NC(=O)[C@H](CC(N)=O)NC(=O)[C@@H](NC(=O)CCOCCOCC[N+](C)(C)C)C(C)(C)SSC(C)(C)[C@@H](C(=O)N[C@@H](Cc2ccc(-n3cc(CCNC(=N)N)nn3)cc2)C(=O)N[C@@H](Cc2ccc3ccccc3c2)C(=O)NC2(C(=O)N[C@@H](CCCCNC(C)=O)C(=O)N[C@@H](CC(N)=O)C(=O)N[C@@H](Cc3cccnc3)C(=O)N(C)CC(N)=O)CCOCC2)NC1=O` [compound 521, cPEG3aCO-Pen(3)-N-T-7MeW-K(Ac)-Pen(3)-F(4TzlG2)-2Nal-THP-K(Ac)-N-3Pya-Sar-CONH2] ({Me3N+(CH2)2O(CH2)2O(CH2)2CO}-[Pen]NT[Trp(7-Me)]K(Ac)[Pen][X78][2Nal][Thp]K(Ac)N[3Pal][Sar]-NH2; disulfide 1-6), the IC50 was 1.4 nM.
With `CC(=O)NCCCC[C@@H]1NC(=O)[C@H](Cc2c[nH]c3ccccc23)NC(=O)[C@H]([C@@H](C)O)NC(=O)[C@H](CC(N)=O)NC(=O)[C@@H](NC(=O)[C@@H](CCCNC(=N)N)NC(=O)CCOCCOCC[N+](C)(C)C)CCSC[C@@](C)(C(=O)N[C@@H](Cc2ccc(OCCN)cc2)C(=O)N[C@@H](Cc2ccc3ccccc3c2)C(=O)NC2(C(=O)N[C@@H](CCCCNC(C)=O)C(=O)N[C@@H](CC(N)=O)C(=O)N[C@@H](Cc3cccnc3)C(=O)N(C)CC(N)=O)CCCCC2)NC1=O` [compound 548, cPEG3aCO-r-Abu(1)-N-T-W-K(Ac)-aMeC(1)-AEF-2Nal-THP-K(Ac-N-3Pya-Sar-CONH2] ({Me3N+(CH2)2O(CH2)2O(CH2)2CO}-[dR][Abu(4-yl)]NTWK(Ac)[αMeC][AEF][2Nal][Ac6c]K(Ac)N[3Pal][Sar]-NH2; thioether 2-7) the IC50 was 6.4 nM.
`CC(=O)NCCCC[C@@H]1NC(=O)[C@H](Cc2c[nH]c3c(C)cccc23)NC(=O)[C@H]([C@@H](C)O)NC(=O)[C@H](CC(N)=O)NC(=O)[C@@H](NC(C)=O)C(C)(C)SSC(C)(C)[C@@H](C(=O)N[C@@H](Cc2ccc(OCCCC[N+](C)(C)C)cc2)C(=O)N[C@@H](Cc2ccc3ccccc3c2)C(=O)NC2(C(=O)N[C@@H](CCC(=O)O)C(=O)N[C@@H](CC(N)=O)C(=O)N[C@@H](Cc3cccnc3)C(=O)N(C)CC(N)=O)CCOCC2)NC1=O` [compound 550, MeCO-Pen(3)-N-T-7MeW-K(Ac)-Pen(3)-TMA4F-2Nal-THP-N-3Pya-Sar-CONH2] gave an IC50 of 5.5 nM.
With `CC(=O)NCCCC[C@@H]1NC(=O)[C@H](Cc2c[nH]c3c(C)cccc23)NC(=O)[C@H]([C@@H](C)O)NC(=O)[C@H](CC(N)=O)NC(=O)[C@@H](NC(=O)CCOCCOCC[N+](C)(C)C)C(C)(C)SSC(C)(C)[C@@H](C(=O)N[C@@H](Cc2ccc(OC(F)F)cc2)C(=O)N[C@@H](Cc2ccc3ccccc3c2)C(=O)NC2(C(=O)N[C@@H](CCCCNC(C)=O)C(=O)N[C@@H](CC(N)=O)C(=O)N[C@@H](Cc3cccnc3)C(=O)N(C)CC(N)=O)CCOCC2)NC1=O` [compound 551, cPEG3aCO-Pen(3)-N-T-7MeW-K(Ac)-Pen(3)-YCF2H-2Nal-THP-K(Ac-N-3Pya-Sar-CONH2] the IC50 was 5.5 nM.
`CC(=O)N(C)CCCC[C@@H]1NC(=O)[C@H](Cc2c[nH]c3c(C)cccc23)NC(=O)[C@H]([C@@H](C)O)NC(=O)[C@H](CC(=O)N(C)C)NC(=O)[C@@H](NC(=O)CCOCCOCC[N+](C)(C)C)C(C)(C)SSC(C)(C)[C@@H](C(=O)N[C@@H](Cc2ccc(OCCNC(=O)CCOCCOCC[N+](C)(C)C)cc2)C(=O)N[C@@H](Cc2ccc3ccccc3c2)C(=O)NC2(C(=O)N[C@@H](CCCCN(C)C(C)=O)C(=O)N[C@@H](CC(N)=O)C(=O)N[C@@H](Cc3cccnc3)C(=O)N(C)CC(=O)N(C)C)CCOCC2)NC1=O` [compound 571, cPEG3aCO-Pen(3)-N(N(Me)2)-T-7MeW-K(NMeAc)-Pen(3)-AEF(cPEG3a)-2Nal-THP-K(NMeAc)-N-3Pya-Sar-CONMe2] ({Me3N+(CH2)2O(CH2)2O(CH2)2CO}-[Pen]D(NMe2)T[Trp(7-Me)][Lys(Me)](Ac)[Pen][AEF](Me3N+(CH2)2O(CH2)2O(CH2)2CO)[2Nal][Thp][Lys(Me)](Ac)N[3Pal][Sar]-NMe2; disulfide 1-6) showed an IC50 of 3.5 nM.
